Source: patent US20200079819A1, “Use of a Vaccine Targeting a Cryptic Tert Epitope, for Treating Lung Cancer in a HLA-A*0201-Positive Never-Smoker or Light-Former Smoker Patient” (Vaxon Biotech, priority 2017, published 2020)
Where “and” joins values, the source holds several entries; their conditions need not be identical. Identical values can stand only once. No end group written: not given here.

Test system: HLA-A*0201 positive patients with NSCLC expressing TERT
Experiment: Vx-001-201 randomized double blind phase IIb clinical trial (OS, TTF, 12 months survival)
Type: in vivo, human
Text: The Vx-001-201 study is a randomized, double blind multicenter study done in 70 centers in France, Germany, Spain, Italy, Greece, Poland, Romania and Czech Republic. Key eligibility criteria were a) non small cell lung cancer (NSCLC), b) stage IV or recurrent stage I-III, c) disease control after platinum based first line chemotherapy according to RECIST 1.1 criteria, d) HLA-A*0201 positivity, e) tumors expressing TElomerase Reverse Transcriptase (TERT), f) ECOG 0 or 1 g) absence of brain metastasis.
a) Principal endpoint: overall survival (OS) measured from randomization
b) Secondary endpoints: • Time to Treatment Failure (TTF) measured from randomization • OS at 12 months
Patients who fulfilled all inclusion criteria were randomized within 4 weeks after the end of first line chemotherapy.
The vaccination protocol consisted in six vaccinations at three weeks interval. The optimized Vx-001/TERT572Y was used in the first two vaccinations and the native Vx-001/TERT572 in the following four vaccinations. Patients who continued controlling their disease after the sixth vaccination received boost vaccination with the Vx-001/TERT572 every three months. Vaccination was stopped at disease progression (FIG. 1).
The primary and secondary endpoints were analysed in the Full Analysis Set composed of all patients who fulfilled the […] five main criteria a) NSCLC, b) stage IV or recurrent stage I-III, and c) disease control after first line chemotherapy, d) HLA-A*0201 positivity and e) TERT expressing tumors.
We used the Kaplan-Meier method to estimate OS and TTF in each arm and a Cox proportional hazards regression model to estimate Hazard Ratio (HR) relating OS and TTF to the treatment effect.

[1] = FAS patients, all, Vx-001 vs placebo
[2] = FAS, 1st line chemotherapy CARBO (n = 119), Vx-001 arm
[3] = FAS, 1st line chemotherapy CDDP (n = 69), Vx-001 arm
[4] = FAS, Current smoker (n = 50), including light-smoker (≤25 years) (n = 5), Vx-001 arm
[5] = FAS, Female (n = 59), Vx-001 arm
[6] = FAS, Male (n = 131), Vx-001 arm
[7] = FAS, NS + Former smokers (<30 years)(n = 61), Vx-001 arm
[8] = FAS, NS + Former smokers (≤20 years)(n = 47), Vx-001 arm
[9] = FAS, Never smokers (NS) (n = 25), Vx-001 arm
[10] = FAS, age <65 years (n = 92), Vx-001 arm
[11] = FAS, age >65 years (n = 98), Vx-001 arm
[12] = FAS, response to chemotherapy OR (n = 87), Vx-001 arm
[13] = FAS, response to chemotherapy SD (n = 103), Vx-001 arm
[14] = FAS, sub-group NSQ (n = 118), Vx-001 arm
[15] = FAS, sub-group SQ (n = 72), Vx-001 arm
[16] = NS + Former smokers (≤25 years), all (n = 55), Vx-001 arm
[17] = never-smokers and light-smokers (≤25 years, stopped or not), <65 y (n = 28), Vx-001 arm
[18] = never-smokers and light-smokers (≤25 years, stopped or not), >65 y (n = 32), Vx-001 arm
[19] = never-smokers and light-smokers (≤25 years, stopped or not), All (n = 60), Vx-001 arm
[20] = never-smokers and light-smokers (≤25 years, stopped or not), ECOG 0 (n = 28), Vx-001 arm
[21] = never-smokers and light-smokers (≤25 years, stopped or not), ECOG 1 (n = 32), Vx-001 arm
[22] = never-smokers and light-smokers (≤25 years, stopped or not), Female (n = 25), Vx-001 arm
[23] = never-smokers and light-smokers (≤25 years, stopped or not), Male (n = 35), Vx-001 arm
[24] = never-smokers and light-smokers (≤25 years, stopped or not), NSQ (n = 46), Vx-001 arm

Substance: Vx-001: vaccine composed of two nine-amino-acid peptides, TERT572 (SEQ ID No: 1) and TERT572Y (SEQ ID No: 2), administered separately with adjuvant Montanide ISA51 VG (chain 1 RLFFYRKSV; chain 2 YLFFYRKSV; not fully specified)
- 12 months survival (FAS patients, all, Vx-001 arm): 58%
- OS (median) (FAS patients, all, Vx-001 arm): 14.3 months
- TTF (median) (FAS patients, all, Vx-001 arm): 3.6 months
- HR (OS) [1]: 0.97
- HR (TTF) [1]: 0.88
- 12 months OS (%) [2]: 58.2%
- Median survival (months) [2]: 14.3 months
- HR (OS) (FAS, 1st line chemotherapy CARBO (n = 119), Vx-001 vs placebo): 1.06
- 12 months OS (%) [3]: 59%
- Median survival (months) [3]: 15 months
- HR (OS) (FAS, 1st line chemotherapy CDDP (n = 69), Vx-001 vs placebo): 0.81
- 12 months OS (%) [4]: 37.5%
- Median survival (months) [4]: 9 months
- HR (OS) (FAS, Current smoker (n = 50), including light-smoker (≤25 years) (n = 5), Vx-001 vs placebo): 1.39
- 12 months OS (%) [5]: 53.3%
- Median survival (months) [5]: 13.2 months
- HR (OS) (FAS, Female (n = 59), Vx-001 vs placebo): 1.52
- 12 months OS (%) [6]: 61%
- Median survival (months) [6]: 15 months
- HR (OS) (FAS, Male (n = 131), Vx-001 vs placebo): 0.81
- 12 months OS (%) [7]: 69%
- Median survival (months) [7]: 16.2 months
- HR (OS) (FAS, NS + Former smokers (<30 years)(n = 61), Vx-001 vs placebo): 0.67
- 12 months OS (%) [8]: 72.7%
- Median survival (months) [8]: 15.3 months
- HR (OS) (FAS, NS + Former smokers (≤20 years)(n = 47), Vx-001 vs placebo): 0.67
- 12 months OS (%) [9]: 70%
- Median survival (months) [9]: 14.1 months
- HR (OS) (FAS, Never smokers (NS) (n = 25), Vx-001 vs placebo): 0.76
- 12 months OS (%) [10]: 57.7%
- Median survival (months) [10]: 13.4 months
- HR (OS) (FAS, age <65 years (n = 92), Vx-001 vs placebo): 1.2
- 12 months OS (%) [11]: 59%
- Median survival (months) [11]: 15 months
- HR (OS) (FAS, age >65 years (n = 98), Vx-001 vs placebo): 0.78
- 12 months OS (%) [12]: 69%
- Median survival (months) [12]: 15.3 months
- HR (OS) (FAS, response to chemotherapy OR (n = 87), Vx-001 vs placebo): 0.89
- 12 months OS (%) [13]: 52%
- Median survival (months) [13]: 14.3 months
- HR (OS) (FAS, response to chemotherapy SD (n = 103), Vx-001 vs placebo): 0.99
- 12 months OS (%) [14]: 55%
- Median survival (months) [14]: 13.4 months
- HR (OS) (FAS, sub-group NSQ (n = 118), Vx-001 vs placebo): 0.88
- 12 months OS (%) [15]: 64%
- Median survival (months) [15]: 14.3 months
- HR (OS) (FAS, sub-group SQ (n = 72), Vx-001 vs placebo): 1.13
- 12 months OS (%) [16]: 73% and 73.1%
- Median survival (months) [16]: 16.2 months
- 12 months OS [17]: 76.9%
- OS (months) [17]: 20.2 months
- HR (OS) (never-smokers and light-smokers (≤25 years, stopped or not), <65 y (n = 28), Vx-001 vs placebo): 0.50
- 12 months OS [18]: 64.3%
- OS (months) [18]: 15.3 months
- HR (OS) (never-smokers and light-smokers (≤25 years, stopped or not), >65 y (n = 32), Vx-001 vs placebo): 0.62
- 12 months OS [19]: 70.4%
- OS (months) [19]: 20.2 months
- HR (OS) (never-smokers and light-smokers (≤25 years, stopped or not), All (n = 60), Vx-001 vs placebo): 0.55
- 12 months OS [20]: 66.7%
- OS (months) [20]: 24.7 months
- HR (OS) (never-smokers and light-smokers (≤25 years, stopped or not), ECOG 0 (n = 28), Vx-001 vs placebo): 0.52
- 12 months OS [21]: 73.3%
- OS (months) [21]: 15.3 months
- HR (OS) (never-smokers and light-smokers (≤25 years, stopped or not), ECOG 1 (n = 32), Vx-001 vs placebo): 0.49
- 12 months OS [22]: 61.5%
- OS (months) [22]: 15.3 months
- HR (OS) (never-smokers and light-smokers (≤25 years, stopped or not), Female (n = 25), Vx-001 vs placebo): 0.95
- 12 months OS [23]: 78.6%
- OS (months) [23]: 24.7 months
- HR (OS) (never-smokers and light-smokers (≤25 years, stopped or not), Male (n = 35), Vx-001 vs placebo): 0.34
- 12 months OS [24]: 70.0%
- OS (months) [24]: 20.2 months
- HR (OS) (never-smokers and light-smokers (≤25 years, stopped or not), NSQ (n = 46), Vx-001 vs placebo): 0.50
- 12 months OS (never-smokers and light-smokers (≤25 years, stopped or not), SQ (n = 14), Vx-001 arm): 71.4%
